Series [1] is described as follows: Water solubility of HDR enhancing reagents. It counts as physicochemical.
The subject of series [2] is EL-4 cells. The settings on record: vanillin vs absence of vanillin; templates 160 bp, 1 kb, 2 kb, 4 kb; FIG. 2F.
Series [3] deals with CD90.1. The experiment in a line: CD90.1 gene deletion by sgRNA in Balb/c CD4+ T cells, flow cytometry. The settings on record: sgRNA alone, no template; FIG. 2A. A general note: A flow cytometer gives signals particle by particle.
Series [4] relates to Foxp3K276X mutation. Put plainly: Foxp3 gene repair in Foxp3K276X CD4+ T cells, flow cytometry of CD25 and Foxp3. The class given is cell-based, mouse. From the text:
A) Alignment of genomic DNA sequences of wildtype foxp3 (C57BL/6) (SEQ ID NO 038), the Foxp3 locus with a targeted mutation Foxp3K276X (SEQ ID NO 039) which introduces a premature stop codon and the Foxp3 locus of scurfy mice (B6.Cg-Foxp3sf/J) which harbor a spontaneous 2 bp insertion leading to a frame-shift (SEQ ID NO 040). sgRNA binding sites (green line) and PAM sequences (black line). B) Protocol for gene editing of total CD4+ T cells from Foxp3K276X C57BL/6 mice. In vitro activation and electroporation (step 1) with plasmids encoding sgRNA targeting the Foxp3K276X mutation and a circular plasmid containing a 1 kb wildtype (wt) Foxp3 repair template. Successfully transfected cells are isolated based on GFP expression (step 2). Cell expansion in vitro for gene editing in presence of rhIL-2, TGF-β alone or in combination with retinoic acid (RA) and cytokine neutralizing antibodies (anti-IL-4 and anti-IFNγ for 7 days (step 3). C) Experimental setup as in B with total CD4+ T cells from control mice (WT) or Foxp3K276X mice. Flow cytometry of CD25 and Foxp3 expression (gated on live CD4+ T cells). […] Top row: Foxp3 induction with TGF-β alone, bottom row: Foxp3 induction with TGF-β combined with RA. […]

The values below come from patent US11499168B2, “Allele editing and applications thereof” (UNIVERSITÄT BASEL, priority 2016, dated 2022).

`COc1cc(C=O)ccc1O` [vanillin, 4-Hydroxy-3-methoxybenzaldehyde]: in series [1], the water solubility result is “only water soluble compound”. In addition, the “HDR enhancing effect as a function of dsDNA template length” value in series [2] is given as “more pronounced for shorter templates”. With “CD90.1: sgRNA GTTTGTGAGCTTGGAGTCTG targeting CD90.1 (guide GTTTGTGAGCTTCGAGTCTC; listed as DNA, chemistry not fully specified)”, in series [3], the “gene deletion in successfully transfected cells” value is reported as “about 20%”. “Foxp3K276X: sgRNA GCAAGATATCTAGTCCATTG targeting the Foxp3K276X mutation (chemistry not given here)”: the “Foxp3 expression, cells” value in series [4] (Foxp3K276X CD4+ T cells, Foxp3 induction with TGF-β alone, FIG. 4C top) is given as “no Foxp3^+ cells were detected”. In addition, the Foxp3 protein expression result in series [4] (Foxp3K276X cells, FIG. 4C) is “absence of Foxp3 differentiation”.
